In patent publication US5597703A, “Methods for determing cholesterol oxidase activity in an aqueous test sample, determining whether a test compound is capable of inhibiting cholesterol oxidase activity and determining the degree of cholesterol oxidase inhibitory activity” (priority 1994, dated 1997):

System: cholesterol oxidase
Experiment: estimating the toxicity of chemical compounds by presence or absence of sterol domain fade-out in a monolayer on cholesterol oxidase aqueous solution
Type: biochemical
Conditions: cholesterol oxidase 5×10^-3 unit/ml
[1] = 1 mM test compound, monolayer DMPC 0.68 mM / cholesterol 0.3 mM / NBD-PC 0.02 mM

Protocol: In the first embodiment of the method for estimating the toxicity of chemical compounds, there is used cholesterol oxidase HEPES buffer solution of 5×10^-3 unit/ml as the cholesterol oxidase aqueous solution 12. Herein, HEPES means N-2-hydroxyethylpiperazine-N'-2-ethane sulfonic acid which has 0.1 of ionic strength and 7.45 of pH. […] As the monolayer spread solution 13, there is used a solution consisting of 0.68 mM of DMPC (L-α-dimyristoylphosphatidylcholine), 0.3 mM of cholesterol and 0.02 mM of fluorescent dye labeled phospholipid NBD-PC (1-palmitoyl-2-[12-[(7-nitro-2-1,3-benzoxadiazol-4-yl) amino]dodecanoyl]phosphatidylcholine) chloroform. The monolayer spread solution 13 is dropped in the amount of 9.4 ml thereof onto a surface (42.6 cm^2) of the cholesterol oxidase aqueous solution 12 in which 1 mM of zinc chloride is dissolved, and then there is immediately formed a monolayer on the surface.
In the second embodiment, there is used cholesterol oxidase HEPES buffer solution of 5×10^-3 unit/ml as the cholesterol oxidase aqueous solution 12. In the HEPES solution is dissolved 1 mM of calcium chloride the toxicity of which is to be estimated. As the monolayer spread solution 13, there is used a solution consisting of 0.68 mM of DMPC (L-α-dimyristoylphosphatidylcholine), 0.3 mM of cholesterol and 0.02 mM of fluorescent dye labeled phospholipid NBD-PC (1-palmitoyl-2-[12-[(7-nitro-2-1,3-benzoxadiazol-4-yl)amino]dodecanoyl]phosphatyzircoline) chloroform. Similarly to the first embodiment, the monolayer spread solution 13 is dropped onto a surface of the cholesterol oxidase aqueous solution 12, and then there is immediately formed a monolayer on the surface.
In the third embodiment, there is used cholesterol oxidase HEPES buffer solution of 5×10^-3 unit/ ml as the cholesterol oxidase aqueous solution 12. […] As the monolayer spread solution 13, there is used a solution consisting of 0.68 mM of DPPC (L-α-dipalmitoylphosphatidylcholine), 0.3 mM of dihydrocholesterol and 0.02 mM of fluorescent dye labeled phospholipid NBD-PE (1-palmitoyl-2-[12-[(7-nitro-2-1,3-benzoxadiazol-4-yl) amino]dodecanoyl]phosphatidylethanolamine) chloroform. Similarly to the first embodiment, there is formed a monolayer on a surface of the cholesterol oxidase aqueous solution 12 by dropping the monolayer spread solution 13 as above mentioned on the surface.
In the fourth embodiment, there is used cholesterol oxidase HEPES buffer solution of 5×10^-3 unit/ml as the cholesterol oxidase aqueous solution 12. […] As the monolayer spread solution 13, there is used a solution consisting of 0.68 mM of DPPE (L-α-tdipalmitoylphosphatidylethanolamine), 0.3 mM of pregnenolone and 0.02 mM of fluorescent dye labeled phospholipid TR-DPPE (N-(texasredsulfonyl)-L-α-dipalmitoylphosphatidylethanolamine) chloroform.

Row | Structure (SMILES) | toxicity to cholesterol oxidase (sterol domain fade-out 30 minutes after monolayer formation) [1] | also measured
1 | CCCCCCCCCCCCOS(=O)(=O)[O-].[Na+] [SDS, sodium dodecyl sulfate] | – | toxicity to cholesterol oxidase (sterol domain fade-out 30 minutes after monolayer formation) (0.1 mM test compound, monolayer DPPE 0.68 mM / pregnenolone 0.3 mM / TR-DPPE 0.02 mM): has the toxicity to cholesterol oxidase
2 | [Ca+2].[Cl-].[Cl-] [calcium chloride] | not toxic to cholesterol oxidase | –
3 | [Cl][Hg][Cl] [mercury (II) chloride] | – | toxicity to cholesterol oxidase (sterol domain fade-out 30 minutes after monolayer formation) (1 mM test compound, monolayer DPPC 0.68 mM / dihydrocholesterol 0.3 mM / NBD-PE 0.02 mM): has the toxicity to cholesterol oxidase
4 | [Cl-].[Cl-].[Zn+2] [zinc chloride] | toxic to cholesterol oxidase | –
